The test addresses FP receptor (Homo sapiens (Human), UniProt P43088). As to the kind of experiment: In vitro test of inhibition of human FP receptor activity (PGF2α-induced calcium flux in FP-expressing CHEM1 cells). In kind it is cell-based. The note with it: PGF2α-induced (2 nM) calcium flux in FP-expressing CHEM1 cells; some as mean values from multiple determinations. The text has this: Table 1 below lists the IC50 values from this assay for individual working examples of the invention (some as mean values from multiple independent individual determinations): […]
Background: A change in cytosolic calcium serves as a functional read-out for many receptors and channels.
FP receptor, sequence (P43088 whole entry): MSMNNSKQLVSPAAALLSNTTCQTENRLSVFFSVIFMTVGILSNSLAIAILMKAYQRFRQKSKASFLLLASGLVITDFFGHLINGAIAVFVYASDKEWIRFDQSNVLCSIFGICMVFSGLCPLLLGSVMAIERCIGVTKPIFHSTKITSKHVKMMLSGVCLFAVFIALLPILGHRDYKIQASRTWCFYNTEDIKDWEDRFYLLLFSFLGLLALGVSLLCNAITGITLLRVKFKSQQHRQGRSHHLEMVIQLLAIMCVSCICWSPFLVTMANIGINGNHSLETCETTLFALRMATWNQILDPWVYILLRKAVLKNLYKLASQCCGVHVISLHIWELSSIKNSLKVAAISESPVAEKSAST
For orientation: IC50 means the concentration at which inhibition is half-maximal. Regarding `Cc1c(-c2ccccc2)nc2ccc(Br)cc2c1C(=O)NCC(C)(CCCC(=O)O)c1ccccc1Cl` (racemic) [Example 240, (+/−)-6-{[(6-Bromo-3-methyl-2-phenylquinolin-4-yl)carbonyl]amino}-5-(2-chlorophenyl)-5-methylhexanoic Acid], the IC50 is 24 nM. For `Cc1c(-c2ccccc2)nc2ccc(Br)cc2c1C(=O)NCC(C)(CCCC(=O)O)c1ccccc1` (racemic) [Example 243, (+/−)-6-{[(6-Bromo-3-methyl-2-phenylquinolin-4-yl)carbonyl]amino}-5-methyl-5-phenylhexanoic Acid], the IC50 was found to be 31 nM. As for `Cc1c(-c2ccccc2)nc2ccc(Br)cc2c1C(=O)NCC(C(=O)O)c1ccc(F)cc1` (single isomer, unassigned) [Example 11, 3-{[(6-Bromo-3-methyl-2-phenylquinolin-4-yl)carbonyl]amino}-2-(4-fluorophenyl)propanoic Acid], the IC50 was determined as 470 nM. Take `Cc1c(-c2ccccc2)nc2ccc(Br)cc2c1C(=O)NCC(C(=O)O)c1ccc(F)cc1` (single isomer, unassigned) [Example 12, 3-{[(6-Bromo-3-methyl-2-phenylquinolin-4-yl)carbonyl]amino}-2-(4-fluorophenyl)propanoic Acid]: the concentration for half-maximal inhibition (IC50) stood at 180 nM. The result for `Cc1c(-c2ccccc2)nc2ccc(Br)cc2c1C(=O)NCC(C(=O)O)c1ccc2c(c1)OCO2` (single isomer, unassigned) [Example 24, 2-(1,3-Benzodioxol-5-yl)-3-{[(6-bromo-3-methyl-2-phenylquinolin-4-yl)carbonyl]amino}propanoic Acid] reads 580 nM. For `Cc1c(-c2ccccc2)nc2ccc(Br)cc2c1C(=O)NCC(C(=O)O)c1ccc2c(c1)OCO2` (single isomer, unassigned) [Example 25, 2-(1,3-Benzodioxol-5-yl)-3-{[(6-bromo-3-methyl-2-phenylquinolin-4-yl)carbonyl]amino}propanoic Acid], the IC50 was more than 1000 nM. As for `Cc1c(-c2ccccc2)nc2ccc(Br)cc2c1C(=O)NCC(C)(C(=O)O)c1ncccc1Cl` (single isomer, unassigned) [Example 27, 3-{[(6-Bromo-3-methyl-2-phenylquinolin-4-yl)carbonyl]amino}-2-(3-chloropyridin-2-yl)-2-methylpropanoic Acid], the figure is 53 nM. As for `Cc1c(-c2ccccc2)nc2ccc(Br)cc2c1C(=O)NCC(C)(C(=O)O)c1ncccc1Cl` (single isomer, unassigned) [Example 28, 3-{[(6-Bromo-3-methyl-2-phenylquinolin-4-yl)carbonyl]amino}-2-(3-chloropyridin-2-yl)-2-methylpropanoic Acid], the figure is 100 nM; as for `Cc1c(-c2ccccc2)nc2ccc(Br)cc2c1C(=O)NCC(CC(=O)O)c1cccc(Cl)c1` (single isomer, unassigned) [Example 73, 4-{[(6-Bromo-3-methyl-2-phenylquinolin-4-yl)carbonyl]amino}-3-(3-chlorophenyl)butanoic Acid], 86 nM; as for `Cc1c(-c2ccccc2)nc2ccc(Br)cc2c1C(=O)NCC(CC(=O)O)c1cccc(Cl)c1` (single isomer, unassigned) [Example 74, 4-{[(6-Bromo-3-methyl-2-phenylquinolin-4-yl)carbonyl]amino}-3-(3-chlorophenyl)butanoic Acid], 79 nM. In the case of `Cc1c(-c2ccccc2)nc2ccc(Br)cc2c1C(=O)NCC(CC(=O)O)c1c(Cl)cccc1Cl` (single isomer, unassigned) [Example 79, 4-{[(6-Bromo-3-methyl-2-phenylquinolin-4-yl)carbonyl]amino}-3-(2,6-dichlorophenyl)butanoic Acid], the IC50 came to 140 nM.

For `Cc1c(-c2ccccc2)nc2ccc(Br)cc2c1C(=O)NCC(CC(=O)O)c1c(Cl)cccc1Cl` (single isomer, unassigned) [Example 80, 4-{[(6-Bromo-3-methyl-2-phenylquinolin-4-yl)carbonyl]amino}-3-(2,6-dichlorophenyl)butanoic Acid], the 50% inhibitory concentration (IC50) was 51 nM.

As to `Cc1cccc(C(CNC(=O)c2c(C)c(-c3ccccc3)nc3ccc(Br)cc23)CC(=O)O)c1` (single isomer, unassigned) [Example 94, 4-{[(6-Bromo-3-methyl-2-phenylquinolin-4-yl)carbonyl]amino}-3-(3-methylphenyl)butanoic Acid], the IC50 was determined as 96 nM.

On to `Cc1cccc(C(CNC(=O)c2c(C)c(-c3ccccc3)nc3ccc(Br)cc23)CC(=O)O)c1` (single isomer, unassigned) [Example 95, 4-{[(6-Bromo-3-methyl-2-phenylquinolin-4-yl)carbonyl]amino}-3-(3-methylphenyl)butanoic Acid], for which the concentration for half-maximal inhibition (IC50) worked out at 84 nM. `Cc1c(-c2ccccc2)nc2ccc(Br)cc2c1C(=O)NCC(c1ccccc1Cl)C(C)(C)C(=O)O` (single isomer, unassigned) [Example 112, 4-{[(6-Bromo-3-methyl-2-phenylquinolin-4-yl)carbonyl]amino}-3-(2-chlorophenyl)-2,2-dimethylbutanoic Acid]: the IC50 is 92 nM.

`Cc1c(-c2ccccc2)nc2ccc(Br)cc2c1C(=O)NCC(c1ccccc1Cl)C(C)(C)C(=O)O` (single isomer, unassigned) [Example 113, 4-{[(6-Bromo-3-methyl-2-phenylquinolin-4-yl)carbonyl]amino}-3-(2-chlorophenyl)-2,2-dimethylbutanoic Acid]: the IC50 stood at 62 nM. Take `Cc1c(-c2ccccc2)nc2ccc(Br)cc2c1C(=O)NCC(c1ccccc1Cl)S(=O)(=O)CC(=O)O` (single isomer, unassigned) [Example 198, (+/−)-{[2-{[(6-Bromo-3-methyl-2-phenylquinolin-4-yl)carbonyl]amino}-1-(2-chlorophenyl)ethyl]sulfonyl}acetic Acid]: the IC50 was 400 nM. `Cc1c(-c2ccccc2)nc2ccc(Br)cc2c1C(=O)NCC(c1ccccc1Cl)S(=O)(=O)CC(=O)O` (single isomer, unassigned) [Example 199, {[2-{[(6-Bromo-3-methyl-2-phenylquinolin-4-yl)carbonyl]amino}-1-(2-chlorophenyl)ethyl]sulfonyl}acetic Acid]: the IC50 is 25 nM.

With `Cc1c(-c2ccccc2)nc2ccc(Br)cc2c1C(=O)NCC(CCC(=O)O)c1cc(F)cc(F)c1F` (single isomer, unassigned) [Example 232, 5-{[(6-Bromo-3-methyl-2-phenylquinolin-4-yl)carbonyl]amino}-4-(2,3,5-trifluorophenyl)pentanoic Acid], the IC50 came out at 8.8 nM. As for `Cc1c(-c2ccccc2)nc2ccc(Br)cc2c1C(=O)NCC(CCC(=O)O)c1cc(F)cc(F)c1F` (single isomer, unassigned) [Example 233, 5-{[(6-Bromo-3-methyl-2-phenylquinolin-4-yl)carbonyl]amino}-4-(2,3,5-trifluorophenyl)pentanoic Acid], the IC50 came to 25 nM. As for `Cc1c(-c2ccccc2)nc2ccc(Br)cc2c1C(=O)NCC(C(=O)O)c1ccccc1` (single isomer, unassigned; (+)) [Example 3, (+)-3-{[(6-Bromo-3-methyl-2-phenylquinolin-4-yl)carbonyl]amino}-2-phenylpropanoic Acid], the IC50 stood at 270 nM.

(Values after US11136296B2, “Substituted N-arylethyl-2-arylquinoline-4-carboxamides and use thereof” (Bayer Aktiengesellschaft, priority 2017, dated 2021).)
